B1: NT-3: Neurotrophin-3 (an agonist of TrkC and p75 receptors) (protein, UniProt P20783 139-257, looked up)
Neurotrophin-3: YAEHKSHRGEYSVCDSESLWVTDKSSAIDIRGHQVTVLGEIKTGNSPVKQYFYETRCKEARPVKNGCRGIDDKHWNSQCKTSQTYVRALTSENNKLVGWRWIRIDTSCVCALSRKIGRT

Assays:
APRE19 cells [1] = test: Protection of retinal pigmented epithelial cells from oxidative-stress-induced apoptosis (TNFα and H2O2), nuclei stained with Hoechst reagent; assay type: cell-based; details: stressed APRE19 cells, TNFα and H2O2, sixteen hours
Method: Neurotrophic Protection of Retinal Pigmented Epithelial Cells from Degeneration Due to Oxidative Stress
The purpose of this study was to investigate the pharmacological concept of neurotrophic prevention of oxidative-stress-induced degeneration of retinal pigmented epithelial (RPE) cells. The aim of this study was to validate specific compounds as therapy for retinitis pigmentosa.
APRE19 cells were cultured in complete media, followed by eight hours of serum starvation. Then apoptosis was induced by exposure to oxidative stress (TNFα and H2O2), in the presence or absence of test compounds or controls for sixteen hours. Apoptosis was quantified as the percentage of dead cells over total live+dead cells by counting nuclei stained with Hoechst reagent.
Test agents included nerve growth factor (an agonist of TrkA and p75 receptors), Neurotrophin-3 (an agonist of TrkC and p75 receptors), and compounds D3, 3Ak, 3Ae and 3Aa.

[2] = tested on: mouse model of retinal degeneration; test: Mouse model of retinal degeneration: ERG (scotopic and photopic) and number of Outer Nuclear Layer rows; assay type: in vivo; details: drug treated versus control treated animals
Method: Additional experiments in a mouse model of retinal degeneration were conducted.

APRE19 cells [3] = details: cited from earlier work

Row | Molecule | protection of apoptosis (in words) (APRE19 cells [1]) | drug effect on ERG (scotopic and photopic) and number of Outer Nuclear Layer rows versus control [2] | protection of stressed APRE19 cells by neurotrophins (published) (APRE19 cells [3])
1 | CC[C@H](C)[C@@H]1NC(=O)c2cc(N)ccc2OCc2ccc(C(N)=O)cc2NC(=O)[C@H](CCCCN)NC1=O [Compound 3Aa] | protection is not dose dependent and is less than that seen with compounds D3, 3Ak and 3Ae | did not show a drug effect that was statistically significant from control | 
2 | CC[C@H](C)[C@@H]1NC(=O)c2cc(N)ccc2OCc2ccc(C(N)=O)cc2NC(=O)[C@H](CCCNC(=N)N)NC1=O [Compound 3Ae] | quantitative and significant protection of apoptosis, in a dose dependent manner |  | 
3 | N=C(N)NCCC[C@@H]1NC(=O)c2cc(N)ccc2OCc2ccc(C(N)=O)cc2NC(=O)CNC1=O [Compound 3Ak] | quantitative and significant protection of apoptosis, in a dose dependent manner |  | 
4 | NCCCC[C@@H]1NC(=O)[C@H](CCC(=O)O)NC(=O)c2cc([N+](=O)[O-])ccc2OCCC(C(=O)NCC(=O)O)NC1=O (stereo partly shown) [Compound D3] | quantitative and significant protection of apoptosis, in a dose dependent manner |  | 
5 | NGF: nerve growth factor (an agonist of TrkA and p75 receptors) |  |  | Protection of stressed APRE19 cells
6 | B1 |  |  | Protection of stressed APRE19 cells
